Reference: ChEMBL document CHEMBL4715815, “Design, synthesis and biological evaluation of 7H-pyrrolo[2,3-d]pyrimidin-4-amine derivatives as selective Btk inhibitors with improved pharmacokinetic properties for the treatment of rheumatoid arthritis” (Eur J Med Chem, 2018)
Active and inactive are the calls of the source. The rule behind the calls is not given here.

Assays:
[1] = Half life in Sprague-Dawley rat at 3 mg/kg, iv measured up to 24 hrs by LC-MS/MS analysis; format: ADME, organism-based; conditions: in vivo
[2] = target: NT-3 growth factor receptor (Homo sapiens, UniProt Q16288); test: Inhibition of TRKc (unknown origin)
[3] = target: Dual specificity mitogen-activated protein kinase kinase 7 (Homo sapiens, UniProt O14733); test: Inhibition of MKK7beta (unknown origin)
[4] = target: Ribosomal protein S6 kinase beta-1 (Homo sapiens, UniProt P23443); test: Inhibition of recombinant human p70S6K using CREBtide as substrate incubate for 15 mins by LANCE assay
[5] = target: Ribosomal protein S6 kinase alpha-3 (Homo sapiens, UniProt P51812); test: Inhibition of recombinant human RSK2 using Histone H3 full length as substrate incubate for 10 mins by LANCE assay
[6] = target: Tyrosine-protein kinase TXK (Homo sapiens, UniProt P42681); test: Inhibition of TXK (unknown origin)
[7] = target: T1, Tyrosine-protein kinase BTK (Homo sapiens, UniProt Q06187); test: Inhibition of BTK in human Daudi cells assessed as reduction in PLCgamma2 Y1217 phosphorylation at 0.03 to 10 uM incubated for 1 hr by Western blot analysis; format: cell-based; conditions: dose 0.03-10 µM
[8] = target: Receptor-type tyrosine-protein kinase FLT3 (Homo sapiens, UniProt P36888); test: Inhibition of FLT3 (unknown origin)
[9] = target: T1, Tyrosine-protein kinase BTK; test: Inhibition of BTK (unknown origin) by caliper mobility shift assay
[10] = target: T1, Tyrosine-protein kinase BTK; test: Inhibition of BTK in human U2932 cells assessed as reduction in BTK Y223 phosphorylation incubated for 1 hr by Western blot analysis; format: cell-based; conditions: dose 0.03-10 µM
[11] = target: T1, Tyrosine-protein kinase BTK; test: Inhibition of BTK in human Raji cells assessed as reduction in PLCgamma2 Y1217 phosphorylation at 0.03 to 10 uM incubated for 1 hr by Western blot analysis; format: cell-based; conditions: dose 0.03-10 µM
[12] = Tmax in Sprague-Dawley rat at 3 mg/kg, po measured up to 24 hrs by LC-MS/MS analysis; format: ADME, organism-based; conditions: in vivo
[13] = Oral bioavailability in Sprague-Dawley rat at 3 mg/kg measured up to 24 hrs by LC-MS/MS analysis; format: ADME, organism-based; conditions: in vivo
[14] = target: BDNF/NT-3 growth factors receptor (Homo sapiens, UniProt Q16620); test: Inhibition of recombinant human TRKb using Ulight-Poly GAT[EAY(1:1:1)]n as substrate incubate for 10 mins by LANCE assay
[15] = Toxicity in BALB/c mouse assessed as effect on lung at 2 g/kg, po measured after 7 days of administration by histopathological analysis; conditions: in vivo, 168 h

T1 sequence (Q06187 whole entry): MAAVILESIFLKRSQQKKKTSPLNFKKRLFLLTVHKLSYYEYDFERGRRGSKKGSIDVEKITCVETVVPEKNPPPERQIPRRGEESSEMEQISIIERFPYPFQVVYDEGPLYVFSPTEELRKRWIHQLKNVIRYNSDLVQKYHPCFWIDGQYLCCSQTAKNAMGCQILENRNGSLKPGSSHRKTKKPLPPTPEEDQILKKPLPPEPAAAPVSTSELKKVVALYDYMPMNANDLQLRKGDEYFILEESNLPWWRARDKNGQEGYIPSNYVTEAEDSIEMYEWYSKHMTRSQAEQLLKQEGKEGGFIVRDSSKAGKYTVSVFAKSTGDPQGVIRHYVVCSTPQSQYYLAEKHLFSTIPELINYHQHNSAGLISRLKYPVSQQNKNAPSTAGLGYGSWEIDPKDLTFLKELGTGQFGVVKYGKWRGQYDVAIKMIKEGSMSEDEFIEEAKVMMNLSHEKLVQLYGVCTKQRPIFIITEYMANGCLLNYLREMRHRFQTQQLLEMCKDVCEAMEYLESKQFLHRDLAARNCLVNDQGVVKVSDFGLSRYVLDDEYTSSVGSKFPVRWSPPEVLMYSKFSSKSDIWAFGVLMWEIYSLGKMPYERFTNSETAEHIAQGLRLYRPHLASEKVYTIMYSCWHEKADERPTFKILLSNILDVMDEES
NT-3 growth factor receptor, sequence (Q16288 whole entry): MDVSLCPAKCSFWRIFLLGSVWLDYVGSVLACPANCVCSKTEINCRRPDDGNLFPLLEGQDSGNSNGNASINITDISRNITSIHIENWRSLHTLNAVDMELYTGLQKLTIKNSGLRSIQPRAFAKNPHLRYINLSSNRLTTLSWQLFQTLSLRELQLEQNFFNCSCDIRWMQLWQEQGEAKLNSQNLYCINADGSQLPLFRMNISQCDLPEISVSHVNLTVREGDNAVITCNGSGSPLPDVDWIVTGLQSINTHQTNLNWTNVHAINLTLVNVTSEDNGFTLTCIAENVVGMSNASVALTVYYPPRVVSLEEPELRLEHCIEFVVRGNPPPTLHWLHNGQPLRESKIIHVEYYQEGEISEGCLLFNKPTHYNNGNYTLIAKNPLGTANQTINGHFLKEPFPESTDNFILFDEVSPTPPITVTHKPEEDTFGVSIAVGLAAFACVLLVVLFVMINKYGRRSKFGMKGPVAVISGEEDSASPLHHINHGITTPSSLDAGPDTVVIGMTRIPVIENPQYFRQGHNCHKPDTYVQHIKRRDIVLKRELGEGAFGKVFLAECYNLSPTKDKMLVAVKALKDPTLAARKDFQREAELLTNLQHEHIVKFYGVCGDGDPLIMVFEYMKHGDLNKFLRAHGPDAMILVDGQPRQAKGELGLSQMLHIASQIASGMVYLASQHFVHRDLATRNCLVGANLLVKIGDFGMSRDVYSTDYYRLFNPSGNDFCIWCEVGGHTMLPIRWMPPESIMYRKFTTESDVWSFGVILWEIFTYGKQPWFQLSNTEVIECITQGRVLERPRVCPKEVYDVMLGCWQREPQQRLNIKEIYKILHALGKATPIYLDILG
Tyrosine-protein kinase TXK, sequence (P42681 whole entry): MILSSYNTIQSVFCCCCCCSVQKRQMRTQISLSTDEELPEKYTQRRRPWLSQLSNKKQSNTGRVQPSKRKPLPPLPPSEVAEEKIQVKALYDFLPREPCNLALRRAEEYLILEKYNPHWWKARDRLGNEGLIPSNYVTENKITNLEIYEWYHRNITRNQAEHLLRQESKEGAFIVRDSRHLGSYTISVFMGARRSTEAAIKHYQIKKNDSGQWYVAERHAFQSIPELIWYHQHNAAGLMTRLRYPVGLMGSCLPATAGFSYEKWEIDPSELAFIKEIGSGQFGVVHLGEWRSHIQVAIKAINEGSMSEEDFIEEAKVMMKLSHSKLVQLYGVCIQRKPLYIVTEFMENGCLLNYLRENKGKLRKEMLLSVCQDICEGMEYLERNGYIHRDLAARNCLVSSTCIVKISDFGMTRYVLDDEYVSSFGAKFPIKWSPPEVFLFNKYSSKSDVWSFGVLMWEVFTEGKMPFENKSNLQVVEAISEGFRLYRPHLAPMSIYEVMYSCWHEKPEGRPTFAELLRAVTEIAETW
Receptor-type tyrosine-protein kinase FLT3, sequence (P36888 whole entry): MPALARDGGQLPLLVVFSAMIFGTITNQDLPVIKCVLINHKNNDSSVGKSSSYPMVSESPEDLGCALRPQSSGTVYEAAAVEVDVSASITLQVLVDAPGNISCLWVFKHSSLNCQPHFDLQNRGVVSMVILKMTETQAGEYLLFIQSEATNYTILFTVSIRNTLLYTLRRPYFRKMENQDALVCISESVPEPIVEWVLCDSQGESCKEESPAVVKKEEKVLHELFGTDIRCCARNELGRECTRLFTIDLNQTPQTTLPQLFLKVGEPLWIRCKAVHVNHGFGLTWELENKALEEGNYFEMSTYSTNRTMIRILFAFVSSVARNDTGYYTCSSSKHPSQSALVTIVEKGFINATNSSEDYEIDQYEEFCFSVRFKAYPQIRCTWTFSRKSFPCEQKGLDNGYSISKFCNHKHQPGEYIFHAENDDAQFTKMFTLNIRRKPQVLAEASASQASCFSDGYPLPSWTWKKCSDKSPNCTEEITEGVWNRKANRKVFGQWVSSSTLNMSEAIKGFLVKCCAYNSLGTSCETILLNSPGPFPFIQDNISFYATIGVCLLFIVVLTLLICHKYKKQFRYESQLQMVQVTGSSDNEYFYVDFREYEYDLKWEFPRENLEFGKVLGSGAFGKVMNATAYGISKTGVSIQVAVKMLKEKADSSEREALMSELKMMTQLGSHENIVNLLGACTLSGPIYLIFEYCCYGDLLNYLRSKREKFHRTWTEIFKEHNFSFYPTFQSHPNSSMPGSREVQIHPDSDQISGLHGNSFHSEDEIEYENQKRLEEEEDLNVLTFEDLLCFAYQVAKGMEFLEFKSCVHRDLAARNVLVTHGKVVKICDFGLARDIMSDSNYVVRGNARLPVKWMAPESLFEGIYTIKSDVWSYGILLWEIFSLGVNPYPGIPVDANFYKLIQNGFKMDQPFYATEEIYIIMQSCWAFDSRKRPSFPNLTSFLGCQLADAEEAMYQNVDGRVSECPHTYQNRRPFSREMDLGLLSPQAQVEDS
BDNF/NT-3 growth factors receptor, sequence (Q16620 whole entry): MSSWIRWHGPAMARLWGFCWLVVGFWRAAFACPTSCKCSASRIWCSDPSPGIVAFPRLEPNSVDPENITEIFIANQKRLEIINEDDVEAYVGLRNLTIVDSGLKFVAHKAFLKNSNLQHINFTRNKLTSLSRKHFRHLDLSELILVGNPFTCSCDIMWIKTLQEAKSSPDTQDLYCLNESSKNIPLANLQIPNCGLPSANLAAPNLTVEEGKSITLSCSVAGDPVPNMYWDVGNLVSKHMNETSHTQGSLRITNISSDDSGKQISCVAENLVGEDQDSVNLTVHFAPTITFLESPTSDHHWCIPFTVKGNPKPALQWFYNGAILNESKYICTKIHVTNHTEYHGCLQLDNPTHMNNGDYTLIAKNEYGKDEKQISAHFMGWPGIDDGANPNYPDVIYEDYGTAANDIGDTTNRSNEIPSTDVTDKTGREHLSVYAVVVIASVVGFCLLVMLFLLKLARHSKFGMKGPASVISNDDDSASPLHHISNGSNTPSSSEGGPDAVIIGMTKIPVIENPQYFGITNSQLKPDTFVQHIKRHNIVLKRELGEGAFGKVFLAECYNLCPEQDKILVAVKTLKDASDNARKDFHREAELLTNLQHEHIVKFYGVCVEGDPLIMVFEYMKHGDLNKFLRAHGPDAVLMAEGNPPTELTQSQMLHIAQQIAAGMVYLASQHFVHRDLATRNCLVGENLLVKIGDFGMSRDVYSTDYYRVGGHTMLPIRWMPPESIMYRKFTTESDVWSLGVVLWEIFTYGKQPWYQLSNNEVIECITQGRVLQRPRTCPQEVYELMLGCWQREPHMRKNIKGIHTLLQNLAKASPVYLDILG
Ribosomal protein S6 kinase alpha-3, sequence (P51812 whole entry): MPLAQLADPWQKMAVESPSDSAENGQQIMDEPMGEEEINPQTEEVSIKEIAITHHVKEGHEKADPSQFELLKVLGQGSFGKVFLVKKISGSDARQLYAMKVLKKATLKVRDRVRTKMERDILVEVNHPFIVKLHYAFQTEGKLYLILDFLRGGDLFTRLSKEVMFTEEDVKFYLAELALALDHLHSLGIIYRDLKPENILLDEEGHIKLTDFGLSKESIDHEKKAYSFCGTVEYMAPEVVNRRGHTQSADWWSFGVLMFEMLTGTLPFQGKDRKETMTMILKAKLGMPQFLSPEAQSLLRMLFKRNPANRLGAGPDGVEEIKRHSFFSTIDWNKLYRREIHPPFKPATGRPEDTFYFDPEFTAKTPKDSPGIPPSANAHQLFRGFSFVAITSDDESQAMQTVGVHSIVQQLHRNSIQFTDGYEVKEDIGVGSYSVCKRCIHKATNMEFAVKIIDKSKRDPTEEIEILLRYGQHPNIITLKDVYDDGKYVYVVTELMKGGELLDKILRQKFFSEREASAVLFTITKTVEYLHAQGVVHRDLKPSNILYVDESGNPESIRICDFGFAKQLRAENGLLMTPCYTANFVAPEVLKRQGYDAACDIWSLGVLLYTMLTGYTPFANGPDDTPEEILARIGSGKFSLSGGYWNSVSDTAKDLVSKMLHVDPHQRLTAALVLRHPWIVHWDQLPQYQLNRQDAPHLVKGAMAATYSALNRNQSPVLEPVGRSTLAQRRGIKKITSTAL
Dual specificity mitogen-activated protein kinase kinase 7, sequence (O14733 whole entry): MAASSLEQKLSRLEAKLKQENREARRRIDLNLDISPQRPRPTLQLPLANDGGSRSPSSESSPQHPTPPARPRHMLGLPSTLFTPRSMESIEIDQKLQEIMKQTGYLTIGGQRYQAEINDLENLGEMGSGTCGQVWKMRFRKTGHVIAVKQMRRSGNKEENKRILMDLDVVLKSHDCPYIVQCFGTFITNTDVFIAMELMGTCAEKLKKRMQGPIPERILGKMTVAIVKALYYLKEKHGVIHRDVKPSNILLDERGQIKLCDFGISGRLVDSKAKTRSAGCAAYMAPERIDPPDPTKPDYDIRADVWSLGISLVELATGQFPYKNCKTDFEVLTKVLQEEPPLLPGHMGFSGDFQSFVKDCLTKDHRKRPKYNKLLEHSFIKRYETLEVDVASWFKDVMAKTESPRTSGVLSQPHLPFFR

C=CC(=O)N1CCC(Cn2cc(-c3ccc4c(c3)OCO4)c3c(N)ncnc32)CC1
t1/2 [1]: 311 min | IC50 [2]: > 10 µM | IC50 [3]: > 10 µM | IC50 [4]: > 10 µM | IC50 [5]: > 10 µM | IC50 [6]: 0.331 µM | inhibition [7]: Active | IC50 [8]: > 10 µM | IC50 [9]: 0.0217 µM | inhibition [10]: Dose-dependent effect | inhibition [11]: Active | Tmax [12]: 57.6 min | bioavailability [13]: 49.1% | IC50 [14]: > 10 µM | Activity [15]: Non-Toxic
